Experimental data published in patent publication US7951824B2, “4-aryl-pyridine-2-carboxyamide derivatives” (Hoffman-La Roche Inc., priority 2006, dated 2011).

The compounds below were run against T1, human mGlu 5a receptor (Homo sapiens, UniProt P41594) (assay: [3H]MPEP competition binding on membranes of EBNA cells transfected with human mGlu 5a receptor). Conditions: competition with [3H]MPEP (2 nM), 1 h at 4° C., EBNA cell membranes.
T1 construct: expressed in transfected cells; host or cells: EBNA cells (transient transfection), membrane homogenates
T1 sequence (P41594 21-1180 isoform P41594-2 limits assumed): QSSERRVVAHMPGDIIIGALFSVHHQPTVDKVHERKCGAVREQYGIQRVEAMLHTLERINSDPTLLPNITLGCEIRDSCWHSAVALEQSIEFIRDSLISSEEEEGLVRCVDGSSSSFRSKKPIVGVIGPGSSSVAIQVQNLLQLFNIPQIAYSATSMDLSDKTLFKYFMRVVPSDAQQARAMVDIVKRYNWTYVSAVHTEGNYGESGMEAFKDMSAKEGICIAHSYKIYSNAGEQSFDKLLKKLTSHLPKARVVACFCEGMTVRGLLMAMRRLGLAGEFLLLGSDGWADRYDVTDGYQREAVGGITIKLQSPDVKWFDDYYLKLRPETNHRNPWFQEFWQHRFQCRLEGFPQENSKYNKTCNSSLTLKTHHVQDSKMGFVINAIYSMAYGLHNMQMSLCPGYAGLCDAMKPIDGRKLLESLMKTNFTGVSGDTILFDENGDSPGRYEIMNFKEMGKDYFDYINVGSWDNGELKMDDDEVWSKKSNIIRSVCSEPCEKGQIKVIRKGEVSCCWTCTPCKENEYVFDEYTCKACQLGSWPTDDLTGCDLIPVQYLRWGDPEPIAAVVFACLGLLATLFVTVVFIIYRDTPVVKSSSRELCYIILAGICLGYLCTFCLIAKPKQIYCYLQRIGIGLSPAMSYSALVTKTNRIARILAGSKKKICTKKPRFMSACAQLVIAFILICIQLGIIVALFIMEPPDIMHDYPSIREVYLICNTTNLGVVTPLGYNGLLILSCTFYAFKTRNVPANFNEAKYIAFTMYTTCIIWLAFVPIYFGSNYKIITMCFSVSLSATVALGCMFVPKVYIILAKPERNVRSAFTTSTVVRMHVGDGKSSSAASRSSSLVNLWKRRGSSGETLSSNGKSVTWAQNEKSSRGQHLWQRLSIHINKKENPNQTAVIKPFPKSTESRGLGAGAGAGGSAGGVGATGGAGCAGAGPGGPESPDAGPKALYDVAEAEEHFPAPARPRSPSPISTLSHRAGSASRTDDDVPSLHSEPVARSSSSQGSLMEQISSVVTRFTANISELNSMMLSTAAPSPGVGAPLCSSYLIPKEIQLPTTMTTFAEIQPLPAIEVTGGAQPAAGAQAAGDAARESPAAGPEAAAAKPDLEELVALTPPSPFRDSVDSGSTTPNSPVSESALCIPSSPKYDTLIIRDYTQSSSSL
Protocol: The pharmacological activity of the compounds was tested using the following method: For binding experiments, cDNA encoding human mGlu 5a receptor was transiently transfected into EBNA cells using a procedure described by Schlaeger and Christensen [Cytotechnology 15:1-13 (1998)]. Cell membrane homogenates were stored at −80° C. until the day of assay where upon they were thawed and resuspended and polytronised in 15 mM Tris-HCl, 120 mM NaCl, 100 mM KCl, 25 mM CaCl2, 25 mM MgCl2 binding buffer at pH 7.4 to a final assay concentration of 20 μg protein/well.
Saturation isotherms were determined by addition of twelve [^3H] MPEP concentrations (0.04-100 nM) to these membranes (in a total volume of 200 μd) for 1 h at 4° C. Competition experiments were performed with a fixed concentration of [^3H]MPEP (2 nM) and IC50 values of test compounds evaluated using 11 concentrations (0.3-10,000 nM). Incubations were performed for 1 h at 4° C.
At the end of the incubation, membranes were filtered onto unifilter (96-well white microplate with bonded GF/C filter preincubated 1 h in 0.1% PEI in wash buffer, Packard Bio-Science, Meriden, Conn.) with a Filtermate 96 harvester (Packard BioScience) and washed 3 times with cold 50 mM Tris-HCl, pH 7.4 buffer. Nonspecific binding was measured in the presence of 10 μM MPEP. The radioactivity on the filter was counted (3 min) on a Packard Top-count microplate scintillation counter with quenching correction after addition of 45 μl of microscint 40 (Canberra Packard S. A., Zürich, Switzerland) and shaking for 20 min.
For binding experiments the Ki values of the compounds tested are given. The Ki value is defined by the following formula: KiIC50/[1+L/Kd] in which the IC50 values are those concentrations of the compounds tested which cause 50% inhibition of the competing radioligand ([^3H]MPEP). L is the concentration of radioligand used in the binding experiment and the Kd value of the radioligand is empirically determined for each batch of membranes prepared.

SMILES	Ki
Cc1csc(NC(=O)c2cc(-c3cc(F)cc(F)c3)nc(C)n2)n1 [Example 33, 6-(3,5-Difluoro-phenyl)-2-methyl-pyrimidine-4-carboxylic acid (4-methyl-thiazol-2-yl)-amide]	14 nM
Cc1nc(C(=O)Nc2csc(C)n2)cc(-c2cc(F)cc(F)c2)n1 [Example 34, 6-(3,5-Difluoro-phenyl)-2-methyl-pyrimidine-4-carboxylic acid (2-methyl-thiazol-4-yl)-amide]	36 nM
Cc1nc(C(=O)Nc2ccn(C)n2)cc(-c2cc(F)cc(F)c2)n1 [Example 35, 6-(3,5-Difluoro-phenyl)-2-methyl-pyrimidine-4-carboxylic acid (1-methyl-1H-pyrazol-3-yl)-amide]	51 nM
Cc1nc(C(=O)Nc2ccnc(Cl)c2)cc(-c2cc(F)cc(F)c2)n1 [Example 36, 6-(3,5-Difluoro-phenyl)-2-methyl-pyrimidine-4-carboxylic acid (2-chloro-pyridin-4-yl)-amide]	113 nM
Cc1cc(NC(=O)c2cc(-c3cc(F)cc(F)c3)nc(C)n2)ccn1 [Example 37, 6-(3,5-Difluoro-phenyl)-2-methyl-pyrimidine-4-carboxylic acid (2-methyl-pyridin-4-yl)-amide]	90 nM
COc1cncc(-c2cc(C)nc(C(=O)Nc3csc(C)n3)c2)c1 [Example 56, 5-Methoxy-6′-methyl-[3,4′]bipyridinyl-2′-carboxylic acid (2-methyl-thiazol-4-yl)-amide]	29 nM

Now from value to compound:

Ki	SMILES
4 nM	Cc1cc(-c2cc(Cl)cc(Cl)c2)cc(C(=O)Nc2ccn(C)n2)n1 [Example 23, 4-(3,5-Dichloro-phenyl)-6-methyl-pyridine-2-carboxylic acid (1-methyl-1H-pyrazol-3-yl)-amide]
287 nM	Cc1cc(-c2ccc(F)cc2)cc(C(=O)Nc2cccc(Cl)c2)n1 [Example 26, 4-(4-Fluoro-phenyl)-6-methyl-pyridine-2-carboxylic acid (3-chloro-phenyl)-amide]
55 nM	Cc1cc(-c2ccc(F)cc2)cc(C(=O)Nc2nc(C)cs2)n1 [Example 27, 4-(4-Fluoro-phenyl)-6-methyl-pyridine-2-carboxylic acid (4-methyl-thiazol-2-yl)-amide]
411 nM	Cc1cc(NC(=O)c2cc(-c3ccc(F)cc3)cc(C)n2)ccn1 [Example 28, 4-(4-Fluoro-phenyl)-6-methyl-pyridine-2-carboxylic acid (2-methyl-pyridin-4-yl)-amide]
250 nM	Cc1cc(-c2ccc(F)cc2)cc(C(=O)Nc2ccn(C)n2)n1 [Example 29, 4-(4-Fluoro-phenyl)-6-methyl-pyridine-2-carboxylic acid (1-methyl-1H-pyrazol-3-yl)-amide]
280 nM	Cc1cc(-c2ccc(F)cc2)cc(C(=O)Nc2ccc(F)cn2)n1 [Example 30, 4-(4-Fluoro-phenyl)-6-methyl-pyridine-2-carboxylic acid (5-fluoro-pyridin-2-yl)-amide]
620 nM	Cc1cc(-c2ccc(F)cc2)cc(C(=O)Nc2ccnc(Cl)c2)n1 [Example 31, 4-(4-Fluoro-phenyl)-6-methyl-pyridine-2-carboxylic acid (2-chloro-pyridin-4-yl)-amide]
501 nM	Cc1cc(-c2ccc(F)cc2)cc(C(=O)Nc2ccnc(C)n2)n1 [Example 32, 4-(4-Fluoro-phenyl)-6-methyl-pyridine-2-carboxylic acid (2-methyl-pyrimidin-4-yl)-amide]
213 nM	COc1cncc(-c2cc(C)nc(C(=O)Nc3ccn(C)n3)c2)c1 [Example 50, 5-Methoxy-6′-methyl-[3,4′]bipyridinyl-2′-carboxylic acid (1-methyl-1H-pyrazol-3-yl)-amide]
8 nM	Cc1cc(-c2cc(F)cc(F)c2)cc(C(=O)Nc2ccnc(C)n2)n1 [Example 64, 4-(3,5-Difluorophenyl)-6-methyl-pyridine-2-carboxylic acid (2-methyl-pyrimidin-4-yl)-amide]
37 nM	Cc1cc(-c2cncc(F)c2)cc(C(=O)Nc2ccnc(Cl)c2)n1 [Example 67, 5-Fluoro-6′-methyl-[3,4′]bipyridinyl-2′-carboxylic acid (2-chloro-pyridin-4-yl)-amide]

Same assay, conditions: competition with [3H]MPEP (2 nM), 1 h at 4° C., EBNA cell membranes, head prints no unit

SMILES	Ki
Cc1cc(-c2cccc(C#N)c2)cc(C(=O)Nc2nc(C)cs2)n1 [Example 3, 4-(3-Cyano-phenyl)-6-methyl-pyridine-2-carboxylic acid (4-methyl-thiazol-2-yl)-amide]	11 nM
Cc1cc(-c2cccc(OC(F)(F)F)c2)cc(C(=O)Nc2nc(C)cs2)n1 [Example 7, 6-Methyl-4-(3-trifluoromethoxy-phenyl)-pyridine-2-carboxylic acid (4-methyl-thiazol-2-yl)-amide]	14 nM
Cc1cc(-c2cccc(S(C)(=O)=O)c2)cc(C(=O)Nc2nc(C)cs2)n1 [Example 8, 4-(3-Methanesulfonyl-phenyl)-6-methyl-pyridine-2-carboxylic acid (4-methyl-thiazol-2-yl)-amide]	396 nM
Cc1cc(-c2cc(F)c(F)c(F)c2)cc(C(=O)Nc2nc(C)cs2)n1 [Example 11, 6-Methyl-4-(3,4,5-trifluoro-phenyl)-pyridine-2-carboxylic acid (4-methyl-thiazol-2-yl)-amide]	10 nM
COc1ccccc1-c1cc(C)nc(C(=O)Nc2nc(C)cs2)c1 [Example 13, 4-(2-Methoxy-phenyl)-6-methyl-pyridine-2-carboxylic acid (4-methyl-thiazol-2-yl)-amide]	25 nM
Cc1cc(-c2ccccc2Cl)cc(C(=O)Nc2nc(C)cs2)n1 [Example 14, 4-(2-Chloro-phenyl)-6-methyl-pyridine-2-carboxylic acid (4-methyl-thiazol-2-yl)-amide]	4 nM
Cc1cc(-c2cc(Cl)cc(Cl)c2)cc(C(=O)Nc2nc(C)cs2)n1 [Example 17, 4-(3,5-Dichloro-phenyl)-6-methyl-pyridine-2-carboxylic acid (4-methyl-thiazol-2-yl)-amide]	2 nM
Cc1cc(-c2cncnc2)cc(C(=O)Nc2nc(C)cs2)n1 [Example 18, 6-Methyl-4-pyrimidin-5-yl-pyridine-2-carboxylic acid (4-methyl-thiazol-2-yl)-amide]	124 nM
Cc1cc(-c2cc(Cl)cc(Cl)c2)cc(C(=O)Nc2csc(C)n2)n1 [Example 20, 4-(3,5-Dichloro-phenyl)-6-methyl-pyridine-2-carboxylic acid (2-methyl-thiazol-4-yl)-amide]	6 nM

The next lines start with the values.

Ki	SMILES
3 nM	Cc1cc(-c2cccc(F)c2)cc(C(=O)Nc2nc(C)cs2)n1 [Example 1, 4-(3-Fluoro-phenyl)-6-methyl-pyridine-2-carboxylic acid (4-methyl-thiazol-2-yl)-amide]
7 nM	Cc1cc(-c2cc(F)cc(F)c2)cc(C(=O)Nc2nc(C)cs2)n1 [Example 2, 4-(3,5-Difluoro-phenyl)-6-methyl-pyridine-2-carboxylic acid (4-methyl-thiazol-2-yl)-amide]
244 nM	Cc1cc(-c2ccc(Cl)nc2)cc(C(=O)Nc2nc(C)cs2)n1 [Example 4, 6-Chloro-6′-methyl-[3,4′]bipyridinyl-2′-carboxylic add (4-methyl-thiazol-2-yl)-amide]
29 nM	Cc1cc(-c2cc(F)ccc2F)cc(C(=O)Nc2nc(C)cs2)n1 [Example 5, 4-(2,5-Difluoro-phenyl)-6-methyl-pyridine-2-carboxylic acid (4-methyl-thiazol-2-yl)-amide]
1200 nM	COc1ccc(-c2cc(C)nc(C(=O)Nc3nc(C)cs3)c2)cc1 [Example 9, 4-(4-Methoxy-phenyl)-6-methyl-pyridine-2-carboxylic acid (4-methyl-thiazol-2-yl)-amide]
23 nM	Cc1cc(-c2ccc(F)c(F)c2)cc(C(=O)Nc2nc(C)cs2)n1 [Example 10, 4-(3,4-Difluoro-phenyl)-6-methyl-pyridine-2-carboxylic acid (4-methyl-thiazol-2-yl)-amide]
253 nM	Cc1cc(-c2ccc(C#N)cc2)cc(C(=O)Nc2nc(C)cs2)n1 [Example 12, 4-(4-Cyano-phenyl)-6-methyl-pyridine-2-carboxylic acid (4-methyl-thiazol-2-yl)-amide]
17 nM	Cc1cc(-c2cccc(CO)c2)cc(C(=O)Nc2nc(C)cs2)n1 [Example 15, 4-(3-Hydroxymethyl-phenyl)-6-methyl-pyridine-2-carboxylic acid (4-methyl-thiazol-2-yl)-amide]
17 nM	Cc1cc(-c2cccnc2)cc(C(=O)Nc2nc(C)cs2)n1 [Example 16, 6′-Methyl-[3,4′]bipyridinyl-2′-carboxylic acid (4-methyl-thiazol-2-yl)-amide]
25 nM	Cc1cc(-c2cncc(F)c2)cc(C(=O)Nc2nc(C)cs2)n1 [Example 19, 5-Fluoro-6′-methyl-[3,4′]bipyridinyl-2′-carboxylic acid (4-methyl-thiazol-2-yl)-amide]
